In paper PMC5040747, “Preparation and Evaluation of a Novel Class of Amphiphilic Amines as Antitumor Agents and Nanocarriers for Bioactive Molecules” (Pharmaceutical Research, 2016):
pIC50: −log10 of the molar value. Read-outs that look alike come from different tables or passages of the source.

What was measured:
[1] = Encapsulation of drugs in RC16 micelles; type: physicochemical; settings: drug complexed in RC16 micelles, after dialysis and freeze-drying
Method: (§1) Aqueous solutions of RC16 (10 mM, 1 mL) were mixed with ethanol solutions of Doxorubicin, Paclitaxel or Etoposide (1 mM, 1 mL). After stirring 12 h at 25 C the mixtures were dialyzed through 5000 Da MW cutoff dialysis membranes against 100 ml water by changing the external medium every 8 h for 3 days. The RC16-drug complex collected after dialysis was freeze-dried and the solid residue obtained was spectrophotometrically analysed to estimate the percentage of drug in the final product. The anticancer activity of each complexed drug was evaluated in CHLA-20 as the difference between the activity of the complex and the pure RC16 at the same concentration of the complex.

[2] = test system: CHLA-20 cells; assay: Cell killing activity of drugs complexed with RC16 (MTT); type: cell-based, human; settings: CHLA-20, free drug at concentration corresponding to that present in the complex, 48 h, percent of untreated cells
Method: as §1

[3] = test system: 143.98.2; assay: MTT cell proliferation assay, 143.98.2; type: cell-based; settings: Homo sapiens, 143.98.2, Osteosarcoma, read-out: Cell killing activity IC50
Method: (§2) Cells were plated in 96-well tissue culture plates at a density of 1 × 10^3 cells/well, allowed to attach 24 h, and then left untreated or treated with growth medium containing different concentrations of the tested RCn compounds previously dissolved in PBS. After different time periods the cell vitality was determined by MTT assay according to the manufacture’s instruction (Promega). Results are reported as the micromolar concentration of RCn reducing cell survival to 50% (IC50).

[4] = test system: Rh41; assay: MTT cell proliferation assay, Rh41; type: cell-based; settings: Homo sapiens, Rh41, Rhabdomyosarcoma, read-out: Cell killing activity IC50
Method: as §2

[5] = test system: A673; assay: MTT cell proliferation assay, A673; type: cell-based; settings: Homo sapiens, A673, Ewing's Sarcoma, read-out: Cell killing activity IC50
Method: as §2

[6] = test system: SK-N-AS; assay: MTT cell proliferation assay, SK-N-AS; type: cell-based; settings: Homo sapiens, Neuroblastoma, read-out: Cell killing activity IC50
Method: as §2

[7] = test system: S462TY; assay: MTT cell proliferation assay, S462TY; type: cell-based; settings: Homo sapiens, Malignant Peripheral Nerve Sheath Tumor, read-out: Cell killing activity IC50
Method: as §2

[8] = test system: Ramos; assay: MTT cell proliferation assay, Ramos; type: cell-based; settings: Homo sapiens, Lymphoma, read-out: Cell killing activity IC50
Method: as §2

SMILES | Encapsulation efficiency (weight percentage of drug in the final complex) [1] | Cell viability, % CTR (free drug) [2] | pIC50 ([3]; 24 h) | pIC50 ([3]; 48 h) | pIC50 ([4]; 24 h) | pIC50 ([4]; 48 h) | pIC50 ([5]; 24 h) | pIC50 ([5]; 48 h) | pIC50 ([6]; 24 h) | pIC50 ([6]; 48 h) | pIC50 ([7]; 24 h) | pIC50 ([7]; 48 h) | pIC50 ([8]; 24 h) | pIC50 ([8]; 48 h)
COc1cccc2c1C(=O)c1c(O)c3c(c(O)c1C2=O)C[C@@](O)(C(=O)CO)C[C@@H]3O[C@H]1C[C@H](N)[C@H](O)[C@H](C)O1 [DOXO, Doxorubicin] | 2.3 ± 0.78% | 27.62 ± 0.55 % CTR | – | – | – | – | – | – | – | – | – | – | – | –
CCCCCCCCCCCCC1CN2CCCN3CCCCCC132 (stereo not drawn) [RC14, 2-dodecyl-4,8-diazatricyclo[6.5.0.0^1,^4]tridecane] | – | – | 5.88 | 6.11 | 5.87 | 6.01 | 5.90 | 5.95 | 5.92 | 6.20 | 5.74 | 6.02 | 6.02 | 6.66
CCCCCC1CN2CCCN3CCCCCC132 (stereo not drawn) [RC7, 2-pentyl-4,8-diazatricyclo[6.5.0.0^1,^4]tridecane] | – | – | 5.35 | 5.42 | 5.24 | 5.40 | 5.24 | 5.39 | 5.28 | 5.46 | 5.25 | 5.41 | 5.34 | 5.51
COc1cc([C@@H]2c3cc4c(cc3[C@@H](O[C@@H]3O[C@@H]5CO[C@@H](C)O[C@H]5[C@H](O)[C@H]3O)[C@H]3COC(=O)[C@H]23)OCO4)cc(OC)c1O [ETO, Etoposide] | 1.0 ± 0.59% | 65.80 ± 5.76 % CTR | – | – | – | – | – | – | – | – | – | – | – | –
CCCCCCCCCCCCCCCCC1CN2CCCN3CCCCCC132 (stereo not drawn) [RC18, 2-hexadecyl-4,8-diazatricyclo[6.5.0.0^1,^4]tridecane] | – | – | 6.04 | 6.19 | 6.00 | 6.09 | 5.99 | 6.01 | 5.91 | 6.12 | 5.78 | 6.06 | 6.08 | 6.77
CCCCCCCCCCCCCCCCCCC1CN2CCCN3CCCCCC132 (stereo not drawn) [RC20, 2-octadecyl-4,8-diazatricyclo[6.5.0.0^1,^4]tridecane] | – | – | 5.96 | 6.08 | 5.77 | 5.95 | 5.91 | 5.87 | 5.80 | 6.05 | 5.74 | 5.94 | 6.01 | 6.70
CCCCCCCCC1CN2CCCN3CCCCCC132 (stereo not drawn) [RC10, 2-octyl-4,8-diazatricyclo[6.5.0.0^1,^4]tridecane] | – | – | 5.59 | 5.77 | 5.55 | 5.69 | 5.59 | 5.69 | 5.67 | 5.81 | 5.62 | 5.75 | 5.68 | 5.99
CC(=O)O[C@H]1C(=O)[C@@]2(C)[C@H]([C@H](OC(=O)c3ccccc3)[C@]3(O)C[C@H](OC(=O)[C@H](O)[C@@H](NC(=O)c4ccccc4)c4ccccc4)C(C)=C1C3(C)C)[C@]1(OC(C)=O)CO[C@@H]1C[C@@H]2O [PTX, Paclitaxel] | 1.8 ± 0.73% | 56.93 ± 4.61 % CTR | – | – | – | – | – | – | – | – | – | – | – | –
CCCCCCCCCCC1CN2CCCN3CCCCCC132 (stereo not drawn) [RC12, 2-decyl-4,8-diazatricyclo[6.5.0.0^1,^4]tridecane] | – | – | 5.70 | 5.91 | 5.76 | 5.94 | 5.74 | 5.78 | 5.73 | 6.15 | 5.70 | 5.96 | 5.93 | 6.13
